Data: patent publication US9738786B2, “Dyes for labelling molecular ligands” (ILLUMINA CAMBRIDGE LIMITED, priority 2011, dated 2017)

Legend:
Assay type in all cases: physicochemical
[1] = Absorption spectra of dye solutions in water; conditions: for absorption maximum: in water
[2] = Fluorescence of dye solutions in water
[3] = Stability of Dye 5A and 5B versus commercial dyes (FIG. 3)
[4] = Self-quenching of fluorescence with increasing dye/protein ratio (FIG. 1); conditions: relative to dye B with six sulfonic groups
[5] = Stability over time (optical density of solution); conditions: after 14 days
[6] = Spectral properties of dye 9 (ScanMix)
Experimental: [drawing 69] 3 ml of acetic anhydride and 0.3 g triethylamine were heated 20 minutes at 110° C., acetic anhydride-removed under reduced pressure then the product precipitated with diethyl ether. The product was purified by HPLC. The absorption maximum of equimolar solutions in ScanMix of new dye 9 was 536 nm, 0.162 a.u.
A mixture of 0.39 g (1 mmol) of 4-ethyl-2-(2-anilino)vinyl-oxazolo[4,5-b]pyridinium iodide, 0.35 g (1 mmol) 2,3,3-trimethyl-1-(5-carboxypentyl)-3H-indolium-5-sulfonate, 3 ml of acetic anhydride and 0.13 g of sodium acetate was heated 20 minutes at 110° C. Acetic anhydride was removed under reduced pressure then the product precipitated with diethyl ether. The product was purified by flash column. […] This new dye 9 (max 583 nm, 447 a.u.) has stronger fluorescence compared with DG527 (594 nm, 401 a.u.).

[7] = Photo-stability of dye solutions in water under irradiation
[8] = Table 1, symmetrical dyes, solutions in water
[9] = in water, same optical density, excitation at 545 nm

## CC1(C)C(/C=C/C=C/C=C2/N(c3cccc(S(=O)(=O)O)c3)c3cc(S(=O)(=O)[O-])c4cc(S(=O)(=O)O)ccc4c3C2(C)C)=[N+](CCCCCC(=O)O)c2ccc(S(=O)(=O)O)cc21 [NR665]
[1]
  absorption maximum: 664 nm
[2]; in water
  fluorescence strength relative to Dy681: more than 3 times
[2]; water
  fluorescence max: 687 nm

## CC1(C)C(/C=C/C=C/C=C2/N(c3ccccc3)c3ccccc3C2(C)C)=[N+](c2ccccc2)c2ccccc21 [S0 (2), reference compound]
[1]; [8]
  Absorption max, nm: 649 nm
[2]; Table 1, symmetrical dyes in water, S0 (2) = 100
  Fluorescence intensity, %: 100%
[2]; [8]
  Fluorescence max, nm: 674 nm

## CC1(C)C(/C=C/C=C2/N(c3cccc(S(=O)(=O)O)c3)c3cc(S(=O)(=O)[O-])c4cc(S(=O)(=O)O)ccc4c3C2(C)C)=[N+](CCCCCC(=O)O)c2ccc(S(=O)(=O)O)cc21 [Example XX]
[1]
  absorption maximum: 567 nm

## CC1(C)C(/C=C/C(=C/C=C2/N(c3cccc(S(=O)(=O)O)c3)c3ccc4c(S(=O)(=O)[O-])cc(S(=O)(=O)O)cc4c3C2(C)C)c2ccc(C(=O)O)cc2)=[N+](c2cccc(S(=O)(=O)O)c2)c2ccc3c(S(=O)(=O)O)cc(S(=O)(=O)O)cc3c21 [Dye 5A]
[1]
  absorption maximum: 686 nm
[2]
  fluorescence intensity compared with Dy681 and Dy682: higher
  shift of fluorescence maximum compared with Dy681 and Dy682: red shifted
[3]
  stability compared with commercial dyes: better stability

## CC[N+]1=C(/C=C/C=C/C=C2/N(CCCCCC(=O)O)c3ccc(S(=O)(=O)O)cc3C2(C)C)C(C)(C)c2cc(S(=O)(=O)[O-])ccc21 [dye A]
[4]
  self-quenching with increasing dye concentration: more readily self-quenched

## CCN1C(=CC=CC2=[N+](CCCCCC(=O)O)c3ccc(S(=O)(=O)O)cc3C2(C)C)C(C)(C)c2cc(S(=O)(=O)[O-])ccc21 [Cy3, reference compound]
[2]; [9]
  fluorescence intensity: 422 a.u.
  wavelength of fluorescence maximum: 565 nm
[5]
  optical density remaining: 85%

## 1,1,3-trimethyl-3-(3-sulfophenyl)-1H-benzo[e]indolium-disulfonate [CP-13B]
[2]; water
  fluorescence in water: strong fluorescence

## CCN1/C(=C/C=C(/C=C/C2=[N+](CC)c3cc(S(=O)(=O)O)c4cc(S(=O)(=O)O)ccc4c3C2(C)C)c2ccc(C(=O)O)cc2)C(C)(C)c2c1cc(S(=O)(=O)[O-])c1cc(S(=O)(=O)O)ccc21 [Dye 6]
[1]
  absorption maximum: 673 nm
[2]
  relative fluorescence intensity: higher relative fluorescence intensity

## CC[n+]1cccc2oc(/C=C/C=C/C=C3/N(CCCCCC(=O)O)c4ccc(S(=O)(=O)[O-])cc4C3(C)C)nc21 [Dye 9]
[6]
  fluorescence intensity: 447 a.u.
  fluorescence max: 583 nm
[6]; compared to laser excitation wavelength (532 nm)
  absorption maximum: about 536 nm
[6]; equimolar solutions in ScanMix
  absorbance at absorption maximum: 0.162 a.u.
  absorption maximum: 536 nm

## CC1(C)C(/C=C/C(=C/C=C2/N(c3cccc(S(=O)(=O)[O-])c3)c3ccc(S(=O)(=O)[O-])cc3C2(C)C)c2ccc(C(=O)O)cc2)=[N+](c2cccc(S(=O)(=O)[O-])c2)c2ccc(S(=O)(=O)[O-])cc21.[Na+].[Na+].[Na+] [Dye 1]
[1]
  absorption maximum: 658 nm
[7]; solution in water, after 25 days of irradiation
  remaining initial fluorescence intensity: 85%
[7]; solutions in water
  photostability relative to Alexa 647: improved photostability
